Consider 2 compounds from ChEMBL document CHEMBL1687839, “ISAba825, a functional insertion sequence modulating genomic plasticity and bla(OXA-58) expression in Acinetobacter baumannii” (2011).

Format in all cases: functional
Assay [1] deals with Acinetobacter baumannii. The assay can be described thus: Ratio of MIC for Acinetobacter baumannii ATCC 17978 harboring plasmid pWHP825 to MIC for Acinetobacter baumannii ATCC 17978 harboring plasmid 1266.
Assay [2] deals with Acinetobacter baumannii. The assay can be described thus: Antibacterial activity against Acinetobacter baumannii ATCC 17978 harboring plasmid directed expression of beta-lactamase OXA-58 under an ISAba825-ISAba3 hybrid and ISAba3-derived promoter sequence.
Assay [3] has as its system Acinetobacter baumannii. The assay can be described thus: Antibacterial activity against Acinetobacter baumannii ATCC 17978 harboring plasmid 1266.
In assay [4] the test system is Acinetobacter baumannii. In words: Antibacterial activity against Acinetobacter baumannii ATCC 17978 harboring plasmid directed expression of beta-lactamase OXA-58 under an ISAba3 promoter.
In assay [5] the test system is Acinetobacter baumannii. The assay can be described thus: Antibacterial activity against Acinetobacter baumannii ATCC 17978.
Assay [6] deals with Acinetobacter baumannii. In words: Antibacterial activity against Acinetobacter baumannii ATCC 17978 harboring pAB880.
The subject of assay [7] is Acinetobacter baumannii. The assay can be described thus: Antibacterial activity against Acinetobacter baumannii Ab880 overexpressing beta-lactamase OXA-58 under the control of ISAba825 insertion sequence.

≈ marks a conversion by molar mass, not a printed value.

For orientation: MIC means the lowest concentration found to suppress growth. On to `C[C@@H](O)[C@H]1C(=O)N2C(C(=O)O)=C(SCCNC=N)C[C@H]12` [IMIPENEM ANHYDROUS], for which the Ratio in the assay with Acinetobacter baumannii [1] stood at 128. In addition, the MIC against Acinetobacter baumannii [2] is 32 µg/mL (≈ 107 µM); in the assay on Acinetobacter baumannii [3], 0.25 µg/mL (≈ 0.835 µM); with Acinetobacter baumannii [4], 0.5 µg/mL (≈ 1.67 µM); against Acinetobacter baumannii [5] it was 0.25 µg/mL (≈ 0.835 µM); against Acinetobacter baumannii [6], 16 µg/mL (≈ 53.4 µM); in the assay with Acinetobacter baumannii [7], 16 µg/mL (≈ 53.4 µM).
Turning to `C[C@@H](O)[C@H]1C(=O)N2C(C(=O)O)=C(S[C@@H]3CN[C@H](C(=O)N(C)C)C3)[C@H](C)[C@H]12` [MEROPENEM], in the assay on Acinetobacter baumannii [1], the Ratio was 64. The MIC in the assay with Acinetobacter baumannii [2] was 16 µg/mL (≈ 41.7 µM); in the assay with Acinetobacter baumannii [3] it was 0.25 µg/mL (≈ 0.652 µM); against Acinetobacter baumannii [4], 0.5 µg/mL (≈ 1.3 µM); against Acinetobacter baumannii [5], 0.25 µg/mL (≈ 0.652 µM); in the assay on Acinetobacter baumannii [6] it was 8 µg/mL (≈ 20.9 µM); with Acinetobacter baumannii [7] it was 16 µg/mL (≈ 41.7 µM).
